This note sets out measurements from patent US8168800B2, “Aβ-binding small molecules” (The Regents of the University of California, priority 2007, dated 2012).

In data set [1] the test system is MC65 cells. The experiment in a line: MC65 cell protection (cell viability) assay.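 For all read-outs here: intraneuronal AβO toxicity triggered by withdrawing tetracycline, which suppresses the C99 transgene, MTT formazan viability read-out, with tetracycline-maintained cultures taken as 100%.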 To be noted: for EC50: MC65.
From the text: In the MC65 cell protection assay, cytotoxicity associated with intraneuronal AβO was induced by removal of the C99 transgene suppressor, tetracycline (TC).
The target of data set [2] is T1, AβO (Homo sapiens, UniProt P05067).
T1 construct: prepared by mixing a 1:10 ratio of biotinylated and unbiotinylated Aβ1-42 peptide
The experiment in a line: Electron microscopy (EM) of AβO size. In kind it is biochemical. Particulars: 24 hour incubation at 25° C. The method, then:
To address the possible alternative explanation that the depolymerization effect observed for Compound A in the AFM experiment is due to Compound A altered binding of AβO to the AFM mica, the effect of Compound A and Compound B and Congo Red on AβO size was further analyzed by electron microscopy (EM) (see FIG. 5A and FIG. 5B). […] The representative electron micrographs presented in FIG. 5A show the size of the AβO aggregates after incubation with either Compound A, Compound B or Congo Red. FIG. 5B contains a histogram, which illustrates the size distribution of AβO without treatment or with treatment with Compound A, Compound B or Congo Red. It is apparent from EM images in FIG. 5A and in the histograms shown in FIG. 5B that after 24 hour incubation at 25° C. and in the absence of treatment with Compound A or Congo Red, AβO grew in size.

Data set [3] concerns AβO cytotoxicity. Put plainly: Rapid MTT formazan exocytosis (MTT-FE) assay. In kind it is cell-based. Particulars: AβO:Compound 1:0 to 1:4, 1 hour, TS-/TI-MTT.
Method: In the rapid MTT formazan exocytosis (MTT-FE) assay, AβO was combined with LRL 03, LRL 15, Compound A or Congo Red (2.5 μM solution) at a ratio of 1:0, 1:1, 1:2 or 1:4 (AβO:Compound) and incubated for 1 hour, followed by measurement of the degree of formazan exocytosis. […] In particular, cellular MTT formazan was fractionated into the Triton soluble (TS) and insoluble (TI) MTT and quantified and shown in FIG. 7B.
Data set [4] concerns binding of AβO to synapses of cultured mouse hippocampal neurons. The experiment in a line: Synaptic binding assay. In kind it is cell-based. To be noted: 100 nM AβO: 1 μM compound, neurons 21 days in vitro. The method, then: The strong binding of AβO to synapses induces aberration in synapse composition, shape, and density, and was proposed as the molecular basis for the loss of connectivity in AD (see, Lacor, et al., J. Neurosci. (2007) 27:796-807). A synaptic binding assay was performed as described by Lacor et al. (2007), which is incorporated herein by reference, with minor modifications to test the effectiveness of a compound of Formula I (e.g., Compound A) to reduce or to prevent the binding of AβO to synapses. AβO prepared from the N-terminal biotinylated Aβ1-42 peptide was incubated either with 10 equivalents compounds (i.e., 100 nM AβO: 1 μM Compound A), or with DMSO (i.e., the solvent for the compounds used only as a negative control) for five minutes, then added to cultured mouse hippocampal neurons that had been cultured 21 days in vitro. After 5 minute incubation, the neurons were washed, fixed, and stained with streptavidin-Alexa594 for bound AβO. […] The density of puncta per unit dendritic area was quantified using the Image J program and the resulting bar graph is presented in the far right panel.

Data set [5] deals with SDS-stable AβO in MC65 cells. Put plainly: SDS-PAGE and Western blot (6E10) of MC65 cell homogenates. The data set is classed as cell-based. Particulars: 1 μM, 24 hour cultures, 6E10 Western blot. The text has this:
See, Maezawa et al. J Neurochem (2006) 98:57-67, which is incorporated herein by reference.
For orientation: A western blot detects proteins with antibodies after separation by electrophoresis.

T1 sequence (P05067 672-713 limits assumed): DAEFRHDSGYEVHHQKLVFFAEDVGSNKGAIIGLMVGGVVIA

Regarding `Cc1c(C(N)=O)c(=O)oc2cc3c(cc12)nc(Nc1ccccc1Br)n3CCOc1ccccc1` [Compound C, 2-(2-Bromo-phenylamino)-8-methyl-6-oxo-3-(2-phenoxy-ethyl)-3,6-dihydro-chromeno[6,7-d]imidazole-7-carboxylic acid amide], the “protection of MC65 cells from death” value in data set [1] is “inactive”.

Regarding `Nc1c(/N=N/c2ccc(-c3ccc(/N=N/c4cc(S(=O)(=O)O)c5ccccc5c4N)cc3)cc2)cc(S(=O)(=O)O)c2ccccc12` [Congo Red], the “effect on number and size of AβO” value in data set [2] is “reduction in the number and size of AβO”. Also, the “neutralization of AβO cytotoxicity” value in data set [3] is reported as “able to neutralize AβO cytotoxicity”. In addition, in data set [4], the “fluorescent puncta (AβO bound to synapses)” value was “substantially reduced number of puncta”.

As usually defined, the EC50 is the concentration at which the effect is half-maximal. Read a low EC50 as a more potent agent. `Cc1c(C(N)=O)c(=O)oc2cc3c(cc12)nc(Nc1cccc(Br)c1)n3CCOc1ccccc1` [D.1] displayed an EC50 in data set [1] of less than 1000 nM.

In the case of `Cc1c(C(N)=O)c(=O)oc2cc3c(cc12)nc(Nc1ccc(I)cc1)n3CCOc1ccccc1` [D.2], in data set [1], the EC50 was less than 1000 nM.

Regarding `Cc1c(C(N)=O)c(=O)oc2cc3c(cc12)nc(Nc1ccccc1Br)n3CCOc1ccccc1` [D.3], the EC50 in data set [1] is more than 10000 nM.

In data set [1], `C#CCn1c(Nc2cccc(I)c2)nc2cc3c(C)c(C(N)=O)c(=O)oc3cc21` [D.4] showed an EC50 of 1000 to 10000 nM.

As for `Cc1c(C(N)=O)c(=O)oc2cc3c(cc12)nc(Nc1cccc(I)c1)n3CCO` [D.5], the EC50 in data set [1] was more than 10000 nM.

Turning to `COCCn1c(Nc2cccc(I)c2)nc2cc3c(C)c(C(N)=O)c(=O)oc3cc21` [D.6], the EC50 in data set [1] is more than 10000 nM.

For `COc1ccc(CCn2c(Nc3cccc(I)c3)nc3cc4c(C)c(C(N)=O)c(=O)oc4cc32)cc1` [D.7], in data set [1], the EC50 is less than 1000 nM.

Compound `Cc1c(C(N)=O)c(=O)oc2cc3c(cc12)nc(Nc1cccc(I)c1)n3CCc1ccc(Br)cc1` [D.8] registered an EC50 in data set [1] of less than 1000 nM.

`Cc1c(C(N)=O)c(=O)oc2cc3c(cc12)nc(Nc1cccc(I)c1)n3CCOc1ccccc1` [D.9]: in data set [1], the EC50 was less than 1000 nM.

In data set [1], `COc1ccc(Nc2nc3cc4c(C)c(C(N)=O)c(=O)oc4cc3n2CCOc2ccccc2)cc1` [D.10] had an EC50 of less than 1000 nM.

With `Cc1c(C(N)=O)c(=O)oc2cc3c(cc12)nc(Nc1cccc(I)c1)n3C` [D.11], the EC50 in data set [1] lay in the range of 1000 to 10000 nM.

`CCCn1c(Nc2cccc(I)c2)nc2cc3c(C)c(C(N)=O)c(=O)oc3cc21` [D.12]: the EC50 in data set [1] was less than 1000 nM.

As for `Cc1c(C(N)=O)c(=O)oc2cc3c(cc12)nc(Nc1cccc(I)c1)n3CC1CC1` [D.13], the EC50 in data set [1] is less than 1000 nM.

`Cc1c(C(N)=O)c(=O)oc2cc3c(cc12)nc(Nc1cccc(I)c1)n3CC(F)F` [D.14] had an EC50 in data set [1] of 1000 to 10000 nM.

In data set [1], `Cc1c(C(N)=O)c(=O)oc2cc3c(cc12)nc(Nc1cccc(I)c1)n3Cc1cccc(I)c1` [D.15] displayed an EC50 of less than 1000 nM.

In turn, `COc1ccc(Nc2nc3cc4c(C)c(C(N)=O)c(=O)oc4cc3n2Cc2cccc(I)c2)cc1` [D.16] yielded an EC50 in data set [1] of less than 1000 nM.

Take `COc1cccc(Nc2nc3cc4c(C)c(C(N)=O)c(=O)oc4cc3n2Cc2cccc(I)c2)c1` [D.17]: the EC50 in data set [1] is less than 1000 nM.

`CSc1cccc(Nc2nc3cc4c(C)c(C(N)=O)c(=O)oc4cc3n2Cc2cccc(I)c2)c1` [D.18]: the 50% effective concentration (EC50) in data set [1] was less than 1000 nM.

In the case of `COc1ccc(Nc2nc3cc4c(C)c(C(N)=O)c(=O)oc4cc3n2Cc2cccc(I)c2)c(OC)c1` [D.19], in data set [1], the EC50 is less than 1000 nM.

Consider `COc1ccc(Nc2nc3cc4c(C)c(C(N)=O)c(=O)oc4cc3n2Cc2cccc(Br)c2)cc1` [D.20], for which the concentration giving a half-maximal response (EC50) in data set [1] is less than 1000 nM.

As to `COc1ccc(Nc2nc3cc4c(C)c(C(N)=O)c(=O)oc4cc3n2Cc2cccc(F)c2)cc1` [D.21], the EC50 in data set [1] is less than 1000 nM.

On to `COc1ccc(Nc2nc3cc4c(C)c(C(N)=O)c(=O)oc4cc3n2Cc2cccc(Cl)c2)cc1` [D.22], for which, in data set [1], the EC50 was less than 1000 nM.

For `COc1ccc(Nc2nc3cc4c(C)c(C(N)=O)c(=O)oc4cc3n2Cc2ccc(Cl)cc2)cc1` [D.23], the EC50 in data set [1] was less than 1000 nM.

`COc1ccc(Nc2nc3cc4c(C)c(C(N)=O)c(=O)oc4cc3n2Cc2ccc(Br)cc2)cc1` [D.24] yielded an EC50 in data set [1] of less than 1000 nM.

In data set [1], `COc1ccc(Nc2nc3cc4c(C)c(C(N)=O)c(=O)oc4cc3n2Cc2ccc(I)cc2)cc1` [D.25] gave an EC50 of less than 1000 nM.

With `COc1ccc(Nc2nc3cc4c(C)c(C(N)=O)c(=O)oc4cc3n2CCc2ccc(Br)cc2)cc1` [D.26], the EC50 in data set [1] was less than 1000 nM.

Compound `COc1ccc(Nc2nc3cc4c(C)c(C(N)=O)c(=O)oc4cc3n2CCc2cccc(Cl)c2)cc1` [D.27] yielded an EC50 in data set [1] of less than 1000 nM.

For `Cc1c(C(N)=O)c(=O)oc2cc3c(cc12)nc(Nc1ccc(OC(F)(F)F)cc1)n3Cc1cccc(Cl)c1` [D.28], the EC50 in data set [1] was less than 1000 nM.

Compound `Cc1c(C(N)=O)c(=O)oc2cc3c(cc12)nc(Nc1ccc(OC(F)(F)F)cc1)n3Cc1cccc(Br)c1` [D.29] returned an EC50 in data set [1] of less than 1000 nM.

In turn, `Cc1c(C(N)=O)c(=O)oc2cc3c(cc12)nc(Nc1ccc(OC(F)(F)F)cc1)n3Cc1cccc(I)c1` [D.30] yielded an EC50 in data set [1] of less than 1000 nM.

In data set [1], `Cc1c(C(N)=O)c(=O)oc2cc3c(cc12)nc(Nc1ccc(OC(F)(F)F)cc1)n3Cc1ccc(Cl)cc1` [D.31] gave an EC50 of less than 1000 nM.

Regarding `Cc1c(C(N)=O)c(=O)oc2cc3c(cc12)nc(Nc1ccc(OC(F)(F)F)cc1)n3Cc1ccc(Br)cc1` [D.32], the EC50 in data set [1] is less than 1000 nM.

The compound `COc1ccc(Nc2nc3cc4c(C)c(C(N)=O)c(=O)oc4cc3n2-c2cccc(Br)c2)cc1` [D.33] gave an EC50 in data set [1] of more than 10000 nM.

`Cc1c(C(N)=O)c(=O)oc2cc3c(cc12)nc(Nc1ccc(C#N)cc1)n3Cc1ccc(Br)cc1` [D.34] gave an EC50 in data set [1] of less than 1000 nM.

In data set [1], `Cc1c(C(N)=O)c(=O)oc2cc3c(cc12)nc(Nc1ccc(C#N)cc1)n3Cc1ccc(I)cc1` [D.35] displayed an EC50 of less than 1000 nM.

Regarding `NC(=O)[C@H](Cc1ccc(O)c(O)c1)NC(=O)c1ccc2c(c1)nc(Nc1cccc(Br)c1)n2CCOc1ccccc1` [LRL 13, (S)—N-(1-amino-3-(3,4-dihydroxyphenyl)-1-oxopropan-2-yl)-2-(3-bromophenylamino)-1-(2-phenoxyethyl)-1H-benzo[d]imidazole-5-carboxamide, reference compound], the “levels of SDS-stable AβO” value in data set [5] is listed as “decreased the levels of SDS-stable AβO”. In addition, the “protection of MC65 cells from death” value in data set [1] is recorded as “protect MC65 cells from death”.

With `NC(=O)c1ccc2c(c1)nc(Nc1ccc(I)cc1)n2CCOc1ccccc1` [LRL 19, 2-(4-iodophenylamino)-1-(2-phenoxyethyl)-1H-benzo[d]imidazole-5-carboxamide, reference compound], the “levels of SDS-stable AβO” value in data set [5] is recorded as “decreased the levels of SDS-stable AβO”. For the same compound, in data set [1], the “protection of MC65 cells from death” value is given as “protect MC65 cells from death”.
